The source of these data is ChEMBL document CHEMBL2375215, “Phenylpropiophenone derivatives as potential anticancer agents: synthesis, biological evaluation and quantitative structure-activity relationship study” (Eur J Med Chem, 2013).

The test system of assay [1] is PC-3. In words: Selectivity index, ratio of IC50 for human PBMC to IC50 for human PC3 cells.
Assay [2] is described as follows: (§1) Cytotoxicity against human LS174 cells assessed as decrease in cell survival after 72 hrs by MTT assay. The following applies: LS174, 72 h. It counts as functional, cell-based. (Tetrazolium dyes change colour on reduction, which living cells bring about.)
Another assay has as its system LS174. The description is as §1. It counts as functional, cell-based.
For assay [3], the system named is PBMC. The experiment in a line: Cytotoxicity against PHA-stimulated human PBMC assessed as decrease in cell survival after 72 hrs by MTT assay. Type of assay: cell-based.
Assay [4] has as its system K562. In words: Cytotoxicity against human K562 cells assessed as decrease in cell survival after 72 hrs by MTT assay. The following applies: for IC50: K562, 72 h. Type of assay: functional, cell-based.
Assay [5] can be described thus: Selectivity index, ratio of IC50 for PHA-stimulated human PBMC to IC50 for human LS174 cells.
The test system of assay [6] is PC-3. The experiment in a line: Cytotoxicity against human PC3 cells assessed as decrease in cell survival after 72 hrs by MTT assay. It counts as functional, cell-based. The following applies: for IC50: PC-3, 72 h.
Assay [7] relates to MCF7. In words: Selectivity index, ratio of IC50 for PHA-stimulated human PBMC to IC50 for human MCF7 cells.
Assay [8] deals with PBMC. In words: Cytotoxicity against human PBMC assessed as decrease in cell survival after 72 hrs by MTT assay. It counts as cell-based.
Assay [9] has as its system MCF7. The experiment in a line: Selectivity index, ratio of IC50 for human PBMC to IC50 for human MCF7 cells.
The test system of assay [10] is PC-3. The experiment in a line: Selectivity index, ratio of IC50 for PHA-stimulated human PBMC to IC50 for human PC3 cells.
Assay [11] has as its system K562. In words: Selectivity index, ratio of IC50 for human PBMC to IC50 for human K562 cells.
Assay [12] can be described thus: (§2) Cytotoxicity against human Fem-X cells assessed as decrease in cell survival after 72 hrs by MTT assay. It counts as functional, cell-based.
The subject of another assay is Fem-X. Described as §2. Type of assay: functional, cell-based.
The subject of assay [13] is K562. The experiment in a line: Selectivity index, ratio of IC50 for PHA-stimulated human PBMC to IC50 for human K562 cells.
The subject of assay [14] is HeLa. In words: Selectivity index, ratio of IC50 for PHA-stimulated human PBMC to IC50 for human HeLa cells.
The subject of assay [15] is MCF7. The experiment in a line: Cytotoxicity against human MCF7 cells assessed as decrease in cell survival after 72 hrs by MTT assay. It counts as functional, cell-based. The following applies: for IC50: MCF7, 72 h.
A short description of assay [16]: Selectivity index, ratio of IC50 for human PBMC to IC50 for human Fem-X cells.
The subject of assay [17] is HeLa. The experiment in a line: Cytotoxicity against human HeLa cells assessed as decrease in cell survival after 72 hrs by MTT assay. It counts as functional, cell-based.
For assay [18], the system named is HeLa. The experiment in a line: Selectivity index, ratio of IC50 for human PBMC to IC50 for human HeLa cells.
Assay [19] is described as follows: Selectivity index, ratio of IC50 for PHA-stimulated human PBMC to IC50 for human Fem-X cells. It counts as functional.
A short description of assay [20]: Selectivity index, ratio of IC50 for human PBMC to IC50 for human LS174 cells.

Consider `CCCNCC(O)COc1ccccc1C(=O)CCc1ccc(F)cc1.Cl` (racemic), for which the “Ratio IC50” value in the assay with PC-3 [1] is given as 3.35; in assay [5], 2.1; in the assay on MCF7 [7] it was 1.48; in the assay on MCF7 [9], 1.83; in the assay on PC-3 [10], 1.53; with K562 [11] it was 2.18. Also, the “Ratio IC50” value in the assay on K562 [13] was found to be 1.76; with HeLa [14], 3.03; in [16] it was 6.28; in the assay on HeLa [18], 3.75; in assay [19], 5.08; in assay [20], 2.6. Further, the IC50 is 23.2 µM in assay [2] (read-out: IC50); 23.2 µM in [2] (read-out: pIC50 (converted)); 48.8 µM in the assay on PBMC [3]; 27.7 µM in the assay on K562 [4] (read-out: IC50); 27.7 µM in the assay on K562 [4] (read-out: pIC50 (converted)); 31.9 µM in the assay on PC-3 [6] (read-out: IC50). Moreover, the IC50 is 31.9 µM in the assay with PC-3 [6] (read-out: pIC50 (converted)); 60.3 µM in the assay with PBMC [8]; 9.6 µM in [12] (read-out: IC50); 9.6 µM in assay [12] (read-out: pIC50 (converted)); 33 µM in the assay on MCF7 [15] (read-out: IC50); 33 µM in the assay with MCF7 [15] (read-out: pIC50 (converted)). Besides, the IC50 with HeLa [17] (read-out: IC50) and in the assay with HeLa [17] (read-out: pIC50 (converted)) was 16.1 µM each time. Besides, the Activity entry in the assay on LS174, in the assay on K562 [4], in the assay on PC-3 [6], with Fem-X, in the assay on MCF7 [15] and with HeLa [17] was “Dose-dependent effect” each time.

Turning to `O=C(/C=C/c1ccccc1F)c1ccccc1O`, the “Ratio IC50” value with PC-3 [1] came to 0.81; in assay [5], 0.94; in the assay with MCF7 [7], 1.14; in the assay with MCF7 [9] it was 1.22; in the assay with PC-3 [10] it was 0.76; with K562 [11], 3.67. Moreover, the “Ratio IC50” value in the assay with K562 [13] was 3.41; with HeLa [14], 1.84; in assay [16], 2.02; with HeLa [18], 1.98; in assay [19], 1.88; in [20], 1.01. The IC50 was 17.4 µM in assay [2] (read-out: IC50); 17.4 µM in assay [2] (read-out: pIC50 (converted)); 16.4 µM with PBMC [3]; 4.8 µM in the assay on K562 [4] (read-out: IC50); 4.8 µM in the assay with K562 [4] (read-out: pIC50 (converted)); 21.6 µM in the assay on PC-3 [6] (read-out: IC50). Besides, the IC50 in the assay on PC-3 [6] (read-out: pIC50 (converted)) is 21.6 µM; in the assay on PBMC [8] it was 17.6 µM; in assay [12] (read-out: IC50), 8.7 µM; in [12] (read-out: pIC50 (converted)), 8.7 µM; in the assay with MCF7 [15] (read-out: IC50), 14.4 µM; in the assay on MCF7 [15] (read-out: pIC50 (converted)), 14.4 µM. Also, the IC50 with HeLa [17] (read-out: IC50) and in the assay with HeLa [17] (read-out: pIC50 (converted)) was 8.9 µM each time. Besides, the Activity entry in the assay on LS174, with K562 [4], in the assay with PC-3 [6], in the assay with Fem-X, in the assay on MCF7 [15] and in the assay with HeLa [17] was “Dose-dependent effect” throughout.

With `Cc1ccc(/C=C/C(=O)c2ccccc2O)cc1`, the IC50 in assay [2] (read-out: IC50) was 41.2 µM; in [2] (read-out: pIC50 (converted)), 41.2 µM; in the assay with K562 [4] (read-out: IC50), 18.9 µM; with K562 [4] (read-out: pIC50 (converted)), 18.9 µM; with PC-3 [6] (read-out: IC50), 27.6 µM; in the assay on PC-3 [6] (read-out: pIC50 (converted)), 27.6 µM. In addition, the IC50 in [12] (read-out: IC50) is 21.2 µM; in [12] (read-out: pIC50 (converted)), 21.2 µM; with MCF7 [15] (read-out: IC50) it was 33.9 µM; with MCF7 [15] (read-out: pIC50 (converted)), 33.9 µM; in the assay on HeLa [17] (read-out: IC50), 20.6 µM; with HeLa [17] (read-out: pIC50 (converted)), 20.6 µM. Also, the Activity entry in the assay with LS174, in the assay on K562 [4], in the assay with PC-3 [6], in the assay on Fem-X, with MCF7 [15] and in the assay on HeLa [17] was “Dose-dependent effect” each time.

Take `CCCNCC(O)COc1ccccc1C(=O)CCc1ccccc1F.Cl` (racemic): the “Ratio IC50” value with PC-3 [1] was 1.02; in assay [5], 0.67; with MCF7 [7] it was 2.6; with MCF7 [9], 2.57; with PC-3 [10], 1.04; with K562 [11] it was 1.26. For the same compound, the “Ratio IC50” value with K562 [13] worked out at 1.28; in the assay on HeLa [14], 2.93; in assay [16], 1.24; in the assay with HeLa [18], 2.89; in [19], 1.26; in [20] it was 0.66. Also, the IC50 is 72.2 µM in assay [2] (read-out: IC50); 72.2 µM in assay [2] (read-out: pIC50 (converted)); 48.1 µM with PBMC [3]; 37.6 µM in the assay on K562 [4] (read-out: IC50); 37.6 µM in the assay with K562 [4] (read-out: pIC50 (converted)); 46.4 µM in the assay on PC-3 [6] (read-out: IC50). The IC50 in the assay on PC-3 [6] (read-out: pIC50 (converted)) was 46.4 µM; in the assay on PBMC [8], 47.5 µM; in assay [12] (read-out: IC50), 38.2 µM; in assay [12] (read-out: pIC50 (converted)) it was 38.2 µM; in the assay on MCF7 [15] (read-out: IC50) it was 18.5 µM; in the assay with MCF7 [15] (read-out: pIC50 (converted)), 18.5 µM. In addition, the IC50 in the assay with HeLa [17] (read-out: IC50) and in the assay on HeLa [17] (read-out: pIC50 (converted)) was 16.4 µM each time. The Activity entry in the assay on LS174, with K562 [4], in the assay with PC-3 [6], with Fem-X, in the assay with MCF7 [15] and with HeLa [17] was “Dose-dependent effect” throughout.

With `O=C(/C=C/c1ccccc1Cl)c1ccccc1O`, the IC50 in assay [2] (read-out: IC50) is 32.2 µM; in assay [2] (read-out: pIC50 (converted)), 32.2 µM; in the assay with K562 [4] (read-out: IC50), 9.8 µM; in the assay with K562 [4] (read-out: pIC50 (converted)), 9.8 µM; in the assay with PC-3 [6] (read-out: IC50) it was 20.1 µM; in the assay on PC-3 [6] (read-out: pIC50 (converted)), 20.1 µM. Further, the IC50 in assay [12] (read-out: IC50) is 10.4 µM; in assay [12] (read-out: pIC50 (converted)), 10.4 µM; with MCF7 [15] (read-out: IC50), 29.8 µM; in the assay on MCF7 [15] (read-out: pIC50 (converted)), 29.8 µM; in the assay on HeLa [17] (read-out: IC50), 11.2 µM; in the assay with HeLa [17] (read-out: pIC50 (converted)) it was 11.2 µM. The Activity entry with LS174, in the assay with K562 [4], with PC-3 [6], in the assay on Fem-X, with MCF7 [15] and in the assay with HeLa [17] was “Dose-dependent effect” each time.

For `O=C(/C=C/c1ccc(F)cc1)c1ccccc1O`, the IC50 is 35.3 µM in assay [2] (read-out: IC50); 35.3 µM in [2] (read-out: pIC50 (converted)); 17.9 µM in the assay with K562 [4] (read-out: IC50); 17.9 µM in the assay on K562 [4] (read-out: pIC50 (converted)); 30.4 µM in the assay with PC-3 [6] (read-out: IC50); 30.4 µM in the assay on PC-3 [6] (read-out: pIC50 (converted)). The IC50 is 21.8 µM in assay [12] (read-out: IC50); 21.8 µM in assay [12] (read-out: pIC50 (converted)); 26 µM in the assay on MCF7 [15] (read-out: IC50); 26 µM in the assay on MCF7 [15] (read-out: pIC50 (converted)); 22.6 µM in the assay with HeLa [17] (read-out: IC50); 22.6 µM with HeLa [17] (read-out: pIC50 (converted)). The Activity entry in the assay on LS174, with K562 [4], with PC-3 [6], in the assay on Fem-X, with MCF7 [15] and in the assay with HeLa [17] was “Dose-dependent effect” in each case.

As to `Cc1ccccc1/C=C/C(=O)c1ccccc1O`, the IC50 in assay [2] (read-out: IC50) was 48.8 µM; in [2] (read-out: pIC50 (converted)), 48.8 µM; with K562 [4] (read-out: IC50), 18.5 µM; in the assay with K562 [4] (read-out: pIC50 (converted)), 18.5 µM; with PC-3 [6] (read-out: IC50) it was 19.2 µM; in the assay on PC-3 [6] (read-out: pIC50 (converted)), 19.2 µM. Further, the IC50 in [12] (read-out: IC50) was 22.4 µM; in [12] (read-out: pIC50 (converted)), 22.4 µM; with MCF7 [15] (read-out: IC50), 37.7 µM; with MCF7 [15] (read-out: pIC50 (converted)), 37.7 µM; in the assay with HeLa [17] (read-out: IC50), 14.7 µM; in the assay on HeLa [17] (read-out: pIC50 (converted)), 14.7 µM. In addition, the Activity result in the assay on LS174, with K562 [4], in the assay with PC-3 [6], in the assay on Fem-X, in the assay with MCF7 [15] and in the assay on HeLa [17] was “Dose-dependent effect” in each case.
